Source: article PMC6061170, “Synthesis and biological investigations of 3β-aminotropane arylamide derivatives with atypical antipsychotic profile” (Medicinal Chemistry Research, 2018)
Counter-ions that a name gives are not always drawn. Like-named read-outs stand apart in the source and are kept apart here.

Key:
[1] = target: T1, serotonin 5-HT1A receptors (Rattus norvegicus, UniProt P19327); assay: Radioligand binding assay, 5-HT1A receptors
T1 construct: from tissue; host or cells: rat brain tissues
T1 sequence (P19327 1-422): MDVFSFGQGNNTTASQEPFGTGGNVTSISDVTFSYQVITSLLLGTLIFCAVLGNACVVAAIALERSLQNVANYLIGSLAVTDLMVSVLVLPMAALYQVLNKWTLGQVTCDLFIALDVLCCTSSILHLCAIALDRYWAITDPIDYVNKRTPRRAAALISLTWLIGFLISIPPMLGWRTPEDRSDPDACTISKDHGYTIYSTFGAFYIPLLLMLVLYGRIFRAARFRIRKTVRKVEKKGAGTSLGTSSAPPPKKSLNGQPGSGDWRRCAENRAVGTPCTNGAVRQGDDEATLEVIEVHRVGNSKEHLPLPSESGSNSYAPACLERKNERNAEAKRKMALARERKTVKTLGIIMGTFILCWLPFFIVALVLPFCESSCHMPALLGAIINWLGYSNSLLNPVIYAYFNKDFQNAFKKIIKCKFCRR
Procedure: All compounds were tested for their affinities for 5-HT1A, 5-HT2A, and D2 receptors according to previously described procedures (Stefanowicz et al. [2016]).
Competition binding studies were performed according to a previously described procedure in rat brain tissues (Stefanowicz et al. [2016]).

dopamine D2 receptors = dopamine D2 receptors (Rattus norvegicus, UniProt P61169); assay: Radioligand binding assay, D2 receptors
Chain of dopamine D2 receptors (P61169 1-415 isoform P61169-2): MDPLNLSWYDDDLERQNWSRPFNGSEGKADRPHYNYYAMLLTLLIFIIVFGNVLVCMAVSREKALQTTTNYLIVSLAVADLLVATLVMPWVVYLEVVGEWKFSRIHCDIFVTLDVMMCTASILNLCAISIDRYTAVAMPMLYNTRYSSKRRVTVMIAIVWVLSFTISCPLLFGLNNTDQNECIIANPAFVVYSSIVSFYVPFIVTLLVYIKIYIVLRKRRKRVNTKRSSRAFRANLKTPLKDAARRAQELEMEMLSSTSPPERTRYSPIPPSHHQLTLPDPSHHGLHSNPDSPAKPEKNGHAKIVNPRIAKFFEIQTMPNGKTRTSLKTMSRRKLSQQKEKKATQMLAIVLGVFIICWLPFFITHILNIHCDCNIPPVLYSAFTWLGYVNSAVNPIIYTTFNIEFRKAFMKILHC

[2] = target: T2, serotonin 5-HT2A receptors (Rattus norvegicus, UniProt P14842); assay: Radioligand binding assay, 5-HT2A receptors
T2 construct: from tissue; host or cells: rat brain tissues
T2 sequence (P14842 whole entry): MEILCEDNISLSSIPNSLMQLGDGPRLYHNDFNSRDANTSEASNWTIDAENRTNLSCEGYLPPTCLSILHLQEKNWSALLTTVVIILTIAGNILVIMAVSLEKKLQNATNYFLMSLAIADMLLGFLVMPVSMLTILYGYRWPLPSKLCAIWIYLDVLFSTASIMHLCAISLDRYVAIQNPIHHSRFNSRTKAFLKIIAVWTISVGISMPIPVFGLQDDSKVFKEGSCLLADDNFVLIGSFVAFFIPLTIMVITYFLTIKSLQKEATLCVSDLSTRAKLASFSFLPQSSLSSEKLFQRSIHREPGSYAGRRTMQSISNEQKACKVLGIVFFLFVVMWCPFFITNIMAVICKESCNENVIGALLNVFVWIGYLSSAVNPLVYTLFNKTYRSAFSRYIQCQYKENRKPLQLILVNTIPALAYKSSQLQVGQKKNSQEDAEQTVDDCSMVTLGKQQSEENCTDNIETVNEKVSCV

Albino Swiss mice [3] = assay: Four-plate test; settings: 60 min before test
Albino Swiss mice [4] = assay: Forced swim test; settings: last 4 min of session
[5] = rat brain tissues, read-out: 5-HT1A IC50 [nM] ± SEM
[6] = rat brain tissues, read-out: 5-HT1A Ki [nM] ± SEM
[7] = rat brain tissues, read-out: D2 IC50 [nM] ± SEM
[8] = rat brain tissues, read-out: D2 Ki [nM] ± SEM
[9] = rat brain tissues, read-out: 5-HT2A IC50 [nM] ± SEM
[10] = rat brain tissues, read-out: 5-HT2A Ki [nM] ± SEM

SMILES | IC50 [1, 5] [nM] | Ki [1, 6] [nM] | IC50 (dopamine D2 receptors; [7]) [nM] | Ki (dopamine D2 receptors; [8]) [nM] | IC50 [2, 9] [nM] | Ki [2, 10] [nM] | melting point [°C] | Ki [1] [nM] | Number of punished crossings /1 min Mean ± SEM (Albino Swiss mice [3]; diazepam 1.25 mg/kg) | Number of punished crossings /1 min Mean ± SEM (Albino Swiss mice [3]; diazepam 2.5 mg/kg) | Number of punished crossings /1 min Mean ± SEM (Albino Swiss mice [3]; diazepam 5 mg/kg) | Ki (dopamine D2 receptors) [nM] | Immobility time (s) Mean ± SEM (Albino Swiss mice [4]; 5 mg/kg i.p. 30 min before test) [s] | Immobility time (s) Mean ± SEM (Albino Swiss mice [4]; 20 mg/kg i.p. 30 min before test) | IC50 [1] [nM] | IC50 (dopamine D2 receptors) [nM] | IC50 [2] [nM] | Ki [2] [nM]
COc1cc(C(=O)NC2CC3CCC(C2)N3Cc2ccccn2)nc2ccccc12 (stereo not drawn) [Compound 12o] | 453 ± 12.6 | 151 ± 4.1 | > 10000 | > 10000 | > 10000 | > 10000 | 132.5 to 133 |  |  |  |  |  |  |  |  |  |  | 
Nc1cccc(CN2C3CCC2CC(NC(=O)c2ccc4ccccc4c2)C3)c1 (stereo not drawn) [Compound 19b] | 862 ± 49.5 | 286 ± 16.4 | 1560 ± 19.9 | 312 ± 3.9 | 766 ± 48.4 | 208 ± 13.2 | 165.4 to 166.6 |  |  |  |  |  |  |  |  |  |  | 
O=C(NC1CC2CCC(C1)N2Cc1ccccn1)c1ccc2ccccc2n1 (stereo not drawn) [Compound 12l] | 665 ± 14.3 | 221 ± 4.7 | 3080 ± 350 | 616 ± 70.3 | > 10000 | > 10000 | 150.2 to 151 |  |  |  |  |  |  |  |  |  |  | 
Nc1ccc(CN2C3CCC2CC(NC(=O)c2ccc4ccccc4c2)C3)cc1 (stereo not drawn) [Compound 19c] | 4040 ± 469 | 1340 ± 156 | 682 ± 42.7 | 136 ± 8.5 | 4580 ± 199 | 1240 ± 54 | 201.6 to 208.8 |  |  |  |  |  |  |  |  |  |  | 
Cc1cccc(CN2C3CCC2CC(NC(=O)c2cnc4ccccc4c2)C3)c1 (stereo not drawn) [Compound 12f] | 255 ± 9.6 |  | 2730 ± 202 | 546 ± 40.2 | 5290 ± 148 | 1440 ± 40.5 | 194 to 194.7 | 84.5 ± 3.4 |  |  |  |  |  |  |  |  |  | 
CN1C(=O)CN=C(c2ccccc2)c2cc(Cl)ccc21 [Diazepam, reference compound] |  |  |  |  |  |  |  |  | 5.8 ± 0.3; p < 0.01 crossings/1 min | 6.4 ± 0.5; p < 0.01 crossings/1 min | 6.6 ± 0.4; p < 0.05 F(3,36) = 6.455; p < 0.01 crossings/1 min |  |  |  |  |  |  | 
Cc1ccc(CN2C3CCC2CC(NC(=O)c2cnc4ccccc4c2)C3)cc1 (stereo not drawn) [Compound 12j] | 493 ± 44.5 | 164 ± 15 | 227 ± 37.6 |  | > 10000 | > 10000 | 219.5 to 220.8 |  |  |  |  | 45.3 ± 7.5 |  |  |  |  |  | 
O=C(NC1CC2CCC(C1)N2Cc1ccncc1)c1ccc2ccccc2n1 (stereo not drawn) [Compound 12t] | 2430 ± 31 | 809 ± 10.5 | > 10000 | > 10000 | > 10000 | > 10000 | 143 to 145.7 |  |  |  |  |  |  |  |  |  |  | 
CN(C)CCCN1c2ccccc2CCc2ccccc21 [Imipramine, reference compound] |  |  |  |  |  |  |  |  |  |  |  |  | 170.42 ± 10.9 | 77.81 ± 12.2; p < 0.001 F(3,36) = 16.7570; p < 0.0001 s |  |  |  | 
O=C(NC1CC2CCC(C1)N2Cc1cccnc1)c1cnc2ccccc2c1 (stereo not drawn) [Compound 12q] |  |  |  |  |  |  | 138.3 to 146.2 | > 10000 |  |  |  | > 10000 |  |  | > 10000 | > 10000 | > 10000 | > 10000
Cc1ccccc1CN1C2CCC1CC(NC(=O)c1cnc3ccccc3c1)C2 (stereo not drawn) [Compound 12b] | 244 ± 14.9 |  | 1630 ± 23 | 326 ± 4.5 | 3780 ± 348 | 1030 ± 94 | 179.2 to 180.2 | 81.5 ± 5 |  |  |  |  |  |  |  |  |  | 
O=C(NC1CC2CCC(C1)N2Cc1ccncc1)c1cnc2ccccc2c1 (stereo not drawn) [Compound 12u] |  |  |  |  |  |  | 69.5 to 72 | > 10000 |  |  |  | > 10000 |  |  | > 10000 | > 10000 | 4528 ± 22.5 | 1229 ± 6
O=C(NC1CC2CCC(C1)N2Cc1cccnc1)c1ccc2ccccc2n1 (stereo not drawn) [Compound 12p] | 3250 ± 122 | 1080 ± 40.5 | 5440 ± 1030 | 1090 ± 205 | > 10000 | > 10000 | 143 to 143.4 |  |  |  |  |  |  |  |  |  |  | 
Cc1cccc(CN2C3CCC2CC(NC(=O)c2ccc4ncccc4c2)C3)c1 (stereo not drawn) [Compound 12g] | 867 ± 29.7 | 289 ± 9.9 | 1370 ± 81.8 | 275 ± 16.5 | > 10000 | > 10000 | 174.4 to 175.5 |  |  |  |  |  |  |  |  |  |  | 
O=C(NC1CC2CCC(C1)N2Cc1ccccn1)c1cnc2ccccc2c1 (stereo not drawn) [Compound 12m] | 850 ± 135 | 283 ± 45 | > 10000 | > 10000 | > 10000 | > 10000 | 169.4 to 170.5 |  |  |  |  |  |  |  |  |  |  | 
COc1cc(C(=O)NC2CC3CCC(C2)N3Cc2ccncc2)nc2ccccc12 (stereo not drawn) [Compound 12w] | 942 ± 52.9 | 314 ± 18 | > 10000 | > 10000 | > 10000 | > 10000 | 52 to 55 |  |  |  |  |  |  |  |  |  |  | 
Cc1ccc(CN2C3CCC2CC(NC(=O)c2ccc4ccccc4n2)C3)cc1 (stereo not drawn) (as salt: oxalate) [Compound 12i, N-[8-(4-methylbenzyl)-8-azabicyclo[3.2.1]oct-3β-yl)]-quinoline-2-carboxamide oxalate] |  |  |  |  |  |  | 215 to 215.4 |  |  |  |  |  |  |  |  |  |  | 
O=C(NC1CC2CCC(C1)N2Cc1ccncc1)c1ccc2ncccc2c1 (stereo not drawn) [Compound 12v] |  |  |  |  |  |  | 182 to 183.3 | > 10000 |  |  |  | > 10000 |  |  | > 10000 | > 10000 | > 10000 | > 10000
Cc1ccccc1CN1C2CCC1CC(NC(=O)c1ccc3ccccc3n1)C2 (stereo not drawn) [Compound 12a] | 140 ± 6.7 |  | 263 ± 20.5 |  | > 10000 | > 10000 | 120.8 to 121.4 | 46.6 ± 2.2 |  |  |  | 52 ± 4 |  |  |  |  |  | 
O=C(NC1CC2CCC(C1)N2Cc1ccccn1)c1ccc2ncccc2c1 (stereo not drawn) [Compound 12n] |  |  |  |  |  |  | 193.7 to 194.5 | > 10000 |  |  |  | > 10000 |  |  | > 10000 | > 10000 | > 10000 | > 10000
COc1cc(C(=O)NC2CC3CCC(C2)N3Cc2cccnc2)nc2ccccc12 (stereo not drawn) [Compound 12s] | 3750 ± 264 | 1250 ± 88 | > 10000 | > 10000 | > 10000 | > 10000 | 162.6 to 165.5 |  |  |  |  |  |  |  |  |  |  | 
Cc1ccccc1CN1C2CCC1CC(NC(=O)c1ccc3ncccc3c1)C2 (stereo not drawn) [Compound 12c] | 1350 ± 159 | 450 ± 53 | 1270 ± 63 | 254 ± 12.8 | > 10000 | > 10000 | 211.4 to 212.7 |  |  |  |  |  |  |  |  |  |  | 
Cc1ccc(CN2C3CCC2CC(NC(=O)c2ccc4ncccc4c2)C3)cc1 (stereo not drawn) [Compound 12k] | 1530 ± 58 | 511 ± 19 | 172 ± 5 |  | > 10000 | > 10000 | 211.9 to 213 |  |  |  |  | 34.2 ± 0.8 |  |  |  |  |  | 
O=C(NC1CC2CCC(C1)N2Cc1cccnc1)c1ccc2ncccc2c1 (stereo not drawn) [Compound 12r] |  |  |  |  |  |  | 158.3 to 162.5 | > 10000 |  |  |  | > 10000 |  |  | > 10000 | > 10000 | > 10000 | > 10000
